Literature values, collected in US6103262A, “Modified-release metronidazole compositions and methods for making and using same” (priority 1994, dated 2000).

Assays:
[1] = in vivo
[2] = system: Trichomonas vaginalis, Entamoeba histolytica, Helicobacter species, anaerobic bacteria
[3] = system: trichomoniasis or bacterial vaginosis

Structure (SMILES): Cc1ncc([N+](=O)[O-])n1CCO [metronidazole, 1-(2-hydroxyethyl)-2-methyl-5-nitroimidazole]
- absorption by the bloodstream [1]: rapidly absorbed
- clearance from the bloodstream [1]: rapidly cleared
- aqueous solubility (in words): aqueous soluble
- killing of microorganisms [2]: effective for killing
- side effects ([3]; in vivo): significant and undesirable side effects such as nausea
- occurrence and severity of side effects, lower dosages ([3]; in vivo, po): significantly reduce the occurrence and severity of side effects
- clinical efficacy ([3]; single large dose (~2 grams) as a bolus): clinically effective
